Values of other authors as cited in US20020194154A1, “Systems, methods and computer program products for integrating biological/chemical databases using aliases” (priority 2001, published 2002).

Conditions: side effect; text mining of HSDB

CC(C)(C)NCC(O)c1cc(Cl)c(N)c(Cl)c1 (centres unmarked) [clenbuterol]
cardiac arrhythmia: can in some cases cause cardiac arrhythmia | heart rate: increases heart rate
